1 compound from patent publication US9394309B2, “Substituted phenylimidazopyrazoles and their use” (BAYER INTELLECTUAL PROPERTY GmbH, priority 2012, dated 2016) can be followed below.

The target in assay [1] is intracellular domain of human Tie2 (GST fusion protein) (Homo sapiens (Human), UniProt Q02763). Description: Tie2 kinase assay (Tie2-TR-FRET). The assay is classed as biochemical. The following applies: ATP concentration 1 mM; in some cases means of several independent determinations. Here is the method:
The Tie2-inhibitory activity of the substances according to the invention was determined with the aid of one of the Tie2-TR-FRET assays described in the sections below at an ATP concentration of 1 mM (TR-FRET=Time-Resolved Fluorescence Resonance Energy Transfer):
The enzyme used was a recombinant fusion protein of glutathione S-transferase (GST) and the intracellular domain of human Tie2 (amino acids 776-1124) which was expressed in Baculovirus-infected insect cells (Hi5) and was purified by affinity chromatography on glutathione-Sepharose. Alternatively, it is also possible to use commercially available GST-His6-Tie2 fusion protein (ProQinase GmbH, Freiburg im Breisgau, Germany). The substrate used for the kinase reaction was the biotinylated peptide biotin-Ahx-[…] […]
The reaction was stopped by addition of 5 μl of a solution of TR-FRET detection reagents [200 nM streptavidin-XL665 and 2 nM PT66-Eu chelate, a europium chelate-labelled anti-phosphotyrosine antibody (Perkin-Elmer); alternatively, it is also possible to use PT66-Tb cryptate (Cisbio Bioassays, Codolet, France)] in aqueous EDTA solution [90 mM EDTA, 0.28% (w/v) bovine serum albumin (BSA) in 50 mM HEPES pH 7.5]. […] The amount of phosphorylated substrate was then determined by measuring the resonance energy transfer from PT66-Eu chelate to streptavidin-XL665. […]

In assay [2] the target is endogenous Tie2 receptor (Homo sapiens (Human), UniProt Q02763). Description: Tie2-pTyr-ELISA (Tie2 autophosphorylation in HUVEC). The assay is classed as cell-based. Particulars: autophosphorylation elevated by 4 mM sodium orthovanadate, from 2-7 independent measurements. Here is the method: The cellular activity of the compounds according to the invention as Tie2 kinase inhibitors was determined in human endothelial cells (HUVEC) by measuring the inhibition of the autophosphorylation, elevated by treatment with sodium orthovanadate, of the endogenous Tie2 receptor by means of a Tie2/phosphotyrosine sandwich ELISA.
endogenous Tie2 receptor, sequence (Q02763 23-1124): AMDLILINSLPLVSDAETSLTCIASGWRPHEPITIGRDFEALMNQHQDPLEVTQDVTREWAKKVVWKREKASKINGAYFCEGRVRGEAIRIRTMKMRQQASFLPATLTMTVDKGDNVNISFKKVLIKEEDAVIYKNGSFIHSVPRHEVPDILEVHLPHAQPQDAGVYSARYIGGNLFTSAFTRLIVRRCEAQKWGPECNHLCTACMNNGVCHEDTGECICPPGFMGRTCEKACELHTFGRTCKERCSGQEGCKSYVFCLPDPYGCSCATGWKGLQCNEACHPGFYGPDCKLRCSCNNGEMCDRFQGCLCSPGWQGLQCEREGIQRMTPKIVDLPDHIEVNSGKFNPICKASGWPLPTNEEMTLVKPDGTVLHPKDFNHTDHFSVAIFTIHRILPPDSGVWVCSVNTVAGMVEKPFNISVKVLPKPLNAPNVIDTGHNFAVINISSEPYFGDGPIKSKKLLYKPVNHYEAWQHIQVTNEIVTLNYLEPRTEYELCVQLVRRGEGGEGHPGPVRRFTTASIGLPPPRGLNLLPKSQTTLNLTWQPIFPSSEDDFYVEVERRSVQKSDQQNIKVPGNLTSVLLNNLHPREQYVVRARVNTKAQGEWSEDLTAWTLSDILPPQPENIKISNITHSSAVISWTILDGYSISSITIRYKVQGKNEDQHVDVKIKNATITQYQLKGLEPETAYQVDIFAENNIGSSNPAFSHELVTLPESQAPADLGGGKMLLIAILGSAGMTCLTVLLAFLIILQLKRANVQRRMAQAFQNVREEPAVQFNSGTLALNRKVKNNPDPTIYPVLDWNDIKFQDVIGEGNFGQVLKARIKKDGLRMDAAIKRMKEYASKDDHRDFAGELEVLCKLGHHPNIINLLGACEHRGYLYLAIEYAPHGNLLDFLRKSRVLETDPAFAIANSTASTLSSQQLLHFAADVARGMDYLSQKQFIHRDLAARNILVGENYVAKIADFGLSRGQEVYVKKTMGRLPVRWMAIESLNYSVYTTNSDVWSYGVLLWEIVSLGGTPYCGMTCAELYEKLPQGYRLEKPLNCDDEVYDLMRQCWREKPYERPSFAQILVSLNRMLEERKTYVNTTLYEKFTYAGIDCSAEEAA
Human endothelial cells (human umbilical vein endothelial cells, HUVEC) were obtained from Cellsystems (FC-0003), cultured in Vasculife VEGF complete medium (Cellsystems, LL-1020) with 2% foetal calf serum (FCS) at 37° C./5% CO2 and used for Tie2-ELISA measurements up to passage 8.
HUVEC were plated in a culture volume of 100 μl of Vasculife VEGF complete medium at a cell density of 30 000 cells per well in transparent collagen-coated 96-well cell culture plates (Falcon, #353075) and incubated in an incubation cabinet at 37° C./5% CO2 overnight. The test substances dissolved in DMSO were used to prepare in each case one dilution series in Vasculife VEGF low-serum medium [basal medium with LifeFactors (Cellsystems, LM-0002), without FCS, with 0.1% BSA] without sodium orthovanadate and one dilution series in Vasculife VEGF low-serum-medium with 8 mM sodium orthovanadate in the desired concentrations in the range from […] to […], the final DMSO concentration being 1%. […]
Background: An ELISA detects its analyte on a solid surface through an enzyme-linked reagent.

intracellular domain of human Tie2 (GST fusion protein), sequence (Q02763 776-1124): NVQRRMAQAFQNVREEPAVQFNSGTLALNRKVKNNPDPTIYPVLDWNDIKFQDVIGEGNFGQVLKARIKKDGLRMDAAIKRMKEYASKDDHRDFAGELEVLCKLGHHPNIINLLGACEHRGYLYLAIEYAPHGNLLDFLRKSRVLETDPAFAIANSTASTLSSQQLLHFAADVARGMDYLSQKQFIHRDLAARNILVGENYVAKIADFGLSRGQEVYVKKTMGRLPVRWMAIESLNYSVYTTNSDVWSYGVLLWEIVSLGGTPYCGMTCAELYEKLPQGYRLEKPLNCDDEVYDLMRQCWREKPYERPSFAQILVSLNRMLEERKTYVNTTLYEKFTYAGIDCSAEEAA

Broadly, the IC50 is the concentration that gives 50% inhibition. A lower IC50 goes with greater potency in that assay. On to `Cc1ccc(NC(=O)c2cc(C#N)cc(S(F)(F)(F)(F)F)c2)cc1-n1ccn2nc(-c3cn[nH]c3)cc12` [Example 85, 3-Cyano-N-{4-methyl-3-[6-(1H-pyrazol-4-yl)-1H-imidazo[1,2-b]pyrazol-1-yl]phenyl}-5-(pentafluoro-λ^6-sulphanyl)benzamide], for which the IC50 came to 20 nM in assay [1] and 44 nM in assay [2].
